In the supplement of paper PMC10307832:

Experiments:
Assay in all cases: relative viability (nuclei count vs DMSO), 5 days (fraction); higher = more cells survive
[1] = compound: CC(C)C[C@H](NC(=O)[C@H](CCc1ccccc1)NC(=O)CN1CCOCC1)C(=O)N[C@@H](Cc1ccccc1)C(=O)N[C@@H](CC(C)C)C(=O)[C@@]1(C)CO1 [Carfilzomib] + CS(=O)(=O)CCNCc1ccc(-c2ccc3ncnc(Nc4ccc(OCc5cccc(F)c5)c(Cl)c4)c3c2)o1 [Lapatinib] (partner 2 µM)
In short: (§1)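 Nuclei were stained with Hoechst during a one-step fixation (final 0.05% Triton X-100, 1% formaldehyde, 1 ug/ml Hoechst) carried out 5 days after dosing, then counted on 4× images. The cells, lung cancer lines in 1536-well plates, had been dosed by pin tool the day after seeding with one drug alone or a fixed anchor-drug dose plus five library-drug doses (not always all listed) in √10 steps. Relative viability is the nuclei count in treated wells divided by that in vehicle wells, and each value is the median of duplicate plates.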

[2] = compound: O=C(c1cc(Cc2n[nH]c(=O)c3ccccc23)ccc1F)N1CCN(C(=O)C2CC2)CC1 [Olaparib] + COc1cc2c(Oc3ccc(NC(=O)C4(C(=O)Nc5ccc(F)cc5)CC4)cc3F)ccnc2cc1OCCCN1CCOCC1 [Foretinib] (partner 0.25 µM)
In short: as §1

[3] = compound: CC(C)C[C@H](NC(=O)[C@H](CCc1ccccc1)NC(=O)CN1CCOCC1)C(=O)N[C@@H](Cc1ccccc1)C(=O)N[C@@H](CC(C)C)C(=O)[C@@]1(C)CO1 [Carfilzomib] + O=C(c1cc(Cc2n[nH]c(=O)c3ccccc23)ccc1F)N1CCN(C(=O)C2CC2)CC1 [Olaparib] (partner 8 µM)
In short: as §1

[4] = compound: C[C@@H](Oc1cc(-c2cnn(C3CCNCC3)c2)cnc1N)c1c(Cl)ccc(F)c1Cl [Crizotinib] + CS(=O)(=O)CCNCc1ccc(-c2ccc3ncnc(Nc4ccc(OCc5cccc(F)c5)c(Cl)c4)c3c2)o1 [Lapatinib] (partner 2 µM)
In short: as §1

## NCI-H1793
[1]; first compound 0.003162 µM
  relative viability: 0.772
[1]; first compound 0.01 µM
  relative viability: 0.476
[1]; first compound 0.03162 µM
  relative viability: 0.424
[1]; first compound 0.1 µM
  relative viability: 0.114
[2]; first compound 0.08 µM
  relative viability: 0.684
[2]; first compound 0.253 µM
  relative viability: 0.624
[2]; first compound 2.53 µM
  relative viability: 0.648
[2]; first compound 8 µM
  relative viability: 0.706
[3]; first compound 0.001 µM
  relative viability: 0.811
[3]; first compound 0.003162 µM
  relative viability: 1.05
[3]; first compound 0.01 µM
  relative viability: 0.924
[3]; first compound 0.03162 µM
  relative viability: 0.732
[3]; first compound 0.1 µM
  relative viability: 0.223
[4]; first compound 0.01 µM
  relative viability: 0.68
[4]; first compound 0.03162 µM
  relative viability: 0.737
[4]; first compound 0.1 µM
  relative viability: 0.749
[4]; first compound 1 µM
  relative viability: 0.802
